Assay results as given in patent US20220073448A1, “METHOD FOR SYNTHESIZING CARBOXY-CONTAINING ANTHRAQUINONE DERIVATIVE, CARBOXY-CONTAINING ANTHRAQUINONE DERIVATIVE PREPARED THEREBY, AND BATTERY SYSTEM COMPRISING SAME” (CHINA SALT JINTAN CO., LTD., priority 2019, published 2022).

Test: Cyclic voltammetry (CV), three-electrode system, glassy carbon working electrode, Ag/AgCl reference electrode
Assay type: physicochemical
Details: 2 mM in potassium hydroxide aqueous solution at pH=14, scan rate 20 mV/s, in V
From the text: In the cyclic voltammetry test of the electric pair, the CS Series electrochemical workstation from Wuhan Corrtest Instruments Corp., Ltd. was used to test the electrochemical performance of the organic electric pair with a three-electrode system. The working electrode was a glassy carbon electrode (Tianjin IDA Hengsheng Co.), the reference electrode was a Ag/AgCl electrode, the counter electrode was a platinum electrode, the scan range of the electric pair of positive electrode and negative electrode was −1.0 to 1.0 V, and the scan rate was 20 mV·s^−1.
A 1-[N-(5-carboxybutylacyl)]aminoanthraquinone solution (at a concentration of 2 mM, in a potassium hydroxide aqueous solution at pH=14) was investigated by cyclic voltammetry (CV).
A 1-[N-(6-carboxypentylacyl)]aminoanthraquinone solution (at a concentration of 2 mM, in a potassium hydroxide aqueous solution at pH=14) was investigated by cyclic voltammetry (CV).
A 1-[N-(7-carboxyhexylacyl)]aminoanthraquinone solution (at a concentration of 2 mM, in a potassium hydroxide aqueous solution at pH=14) was investigated by cyclic voltammetry (CV).
A 1-[N-(8-carboxyheptylacyl)]aminoanthraquinone solution (at a concentration of 2 mM, in a potassium hydroxide aqueous solution at pH=14) was investigated by cyclic voltammetry (CV).

Compound	redox peak in CV curve	redox peak in CV curve (more negative)
O=C(O)CCCCC(=O)Nc1cccc2c1C(=O)c1ccccc1C2=O [1-[N-(5-carboxybutylacyl)]aminoanthraquinone]	~−0.60	~−0.65
O=C(O)CCCCCCCC(=O)Nc1cccc2c1C(=O)c1ccccc1C2=O [1-[N-(8-carboxyheptylacyl)]aminoanthraquinone]	~−0.60	~−0.68
1-[N-(7-carboxyhexylacyl)]aminoanthraquinone	~−0.60	~−0.67
O=C(O)CCCCC(=O)Nc1cccc2c1C(=O)c1ccccc1C2=O [1-[N-(6-carboxypentylacyl)]aminoanthraquinone]	~−0.60	~−0.66
